Where a name gives a salt, the structure may show the parent alone.
Legend:
[1] = test system: JAK2^V617F knock-in mouse model of myeloproliferative neoplasm (MPN); assay: JAK2V617F knock-in mouse model of myeloproliferative neoplasm; assay type: in vivo; settings: JAK2^V617F mice, 25 mg/kg/day, 56 days, compared to vehicle
Protocol: Compound [IMG 7289; need number or name inserted] was evaluated in the JAK2^V617F knock-in mouse model of myeloproliferative neoplasm (MPN). The procedure of Hasan et al. Blood, 2013, 122, 1464-1477, was followed. (See also Mullally et al. Cancer Cell 2010, 17, 584-596.) Animals bearing the JAK2^V617F were treated with Compound 2 tosylate (25 mg/kg/day) or vehicle for a total of 56 days. Blood samples were taken at the indicated time points and analyzed for hematocrit, white blood cell count (WBC) and platelets as described in Hasan et al. Non-drug-treated animals expressing the JAK2^V617F mutation manifested elevated levels of platelets, WBCs, and hematocrit as compared to wild-type animals.

[2] = primary myelofibrosis patients, 50 to 100 mg/day in combination with prednisone; cited from earlier work

CN1CCN(C(=O)[C@H](CCCN[C@@H]2C[C@H]2c2ccc(F)cc2)NC(=O)c2ccc(-n3ccnn3)cc2)CC1 [Compound 2 tosylate]
hematocrit [1]: reduction | platelet levels [1]: reduction | white blood cell count [1]: reduction

O=C1CCC(N2C(=O)c3ccccc3C2=O)C(=O)N1 (centres unmarked) [Thalidomide]
patients with improved anemia and thrombocytopenia [2]: approximately 60% | patients with reduced spleen size [2]: approximately 20%
